Eight molecules from patent US7592457B2 (Korea Research Institute of Chemical Technology, priority 2004, dated 2009) can be followed below.

The target of data set [1] is T1, human serotonin 5-HT6 receptor (Homo sapiens, UniProt P50406).
T1 construct: made in house; host or cells: Sf21 insect cells (pBacPAK8 baculovirus vector)
Nature of the data set: [3H]LSD binding at cloned 5-HT6 receptors. The note with it: for IC50: [3H]LSD 1.87 nM, cloned receptor membranes, 37° C., 60 min, read-out: IC50; for 5-HT6 affinity compared with known selective antagonists: in words; for inhibition at 10 µM: read-out: Binding affinity (Inhibition rate % at 10 μM) 5HT6.

The target of another data set is D1 (Homo sapiens, UniProt P21728). Nature of the data set: Radioligand binding for selectivity, D1. The note with it: read-out: Binding affinity (Inhibition rate % at 10 μM) D1.
Chain of D1 (P21728 whole entry): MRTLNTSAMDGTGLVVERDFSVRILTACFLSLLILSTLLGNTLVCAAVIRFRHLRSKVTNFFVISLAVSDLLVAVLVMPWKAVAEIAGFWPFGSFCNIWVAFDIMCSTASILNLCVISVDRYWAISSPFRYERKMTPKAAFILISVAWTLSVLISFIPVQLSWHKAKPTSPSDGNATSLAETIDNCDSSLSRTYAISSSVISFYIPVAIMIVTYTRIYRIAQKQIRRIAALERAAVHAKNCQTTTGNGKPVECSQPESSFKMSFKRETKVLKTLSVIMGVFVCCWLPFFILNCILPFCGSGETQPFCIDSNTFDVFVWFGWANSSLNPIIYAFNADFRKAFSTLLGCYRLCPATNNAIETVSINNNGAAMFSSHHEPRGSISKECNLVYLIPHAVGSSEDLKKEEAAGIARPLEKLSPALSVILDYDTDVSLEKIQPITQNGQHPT
The target in the next data set is T2, hD2L receptor (Homo sapiens, UniProt P14416).
T2 construct: purchased BioSignal Packard Inc., Montreal, Canada
T2 sequence (P14416 whole entry): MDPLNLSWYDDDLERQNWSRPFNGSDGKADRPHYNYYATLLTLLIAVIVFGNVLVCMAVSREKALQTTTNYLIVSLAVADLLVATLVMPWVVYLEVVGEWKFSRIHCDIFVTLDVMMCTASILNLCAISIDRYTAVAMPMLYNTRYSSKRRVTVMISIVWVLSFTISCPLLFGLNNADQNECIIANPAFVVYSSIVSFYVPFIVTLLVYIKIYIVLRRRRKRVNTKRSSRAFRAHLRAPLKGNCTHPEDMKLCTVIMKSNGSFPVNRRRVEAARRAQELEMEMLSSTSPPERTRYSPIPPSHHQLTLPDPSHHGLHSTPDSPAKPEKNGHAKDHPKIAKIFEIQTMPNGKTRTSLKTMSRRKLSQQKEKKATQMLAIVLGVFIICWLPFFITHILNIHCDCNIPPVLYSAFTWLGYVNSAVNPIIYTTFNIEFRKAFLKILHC
Nature of the data set: Radioligand binding, dopamine D2 ([3H]spiperone). The settings on record: read-out: Binding affinity (Inhibition rate % at 10 μM) D2. How it is done: (§1) The radioligands used were [^3H] spiperone (for hD2L and hD3 receptors, 1 nM) and [^3H] YM-09151-2 (for hD4.2 receptor, 0.06 nM). Radioligand bindings were performed by the protocols provided by the supplier of receptor membranes (BioSignal Packard Inc., Montreal, Canada). Briefly, the buffer used in D2 or D3 receptor binding assay was 50 mM Tris-HCl (pH 7.4), 10 mM MgCl2, 1 mM EDTA, or 50 mM Tris-HCl (pH 7.4), 5 mM MgCl2, 5 mM EDTA, 5 mM KCl, 1.5 mM CaCl2, 120 mM NaCl, respectively. In [^3H] YM-09151-2 receptor binding assays, the buffer containing 50 mM Tris-HCl (pH 7.4), 5 mM MgCl2, 5 mM EDTA, 5 mM KCl and 1.5 mM CaCl2 was used. Nonspecific binding was determined with haloperidol (10 μM) or clozapine (10 μM) for D2 and D3, and D4 receptors, respectively. Competition binding studies were carried out with 7-8 concentrations of the test compound run in duplicate tubes, and isotherms from three assays were calculated by computerized nonlinear regression analysis (GraphPad Prism Program, San Diego, […]) to yield median inhibitory concentration (IC50) values.

In another data set the target is T3, hD3 receptor (Homo sapiens, UniProt P35462).
T3 construct: purchased BioSignal Packard Inc., Montreal, Canada
T3 sequence (P35462 whole entry): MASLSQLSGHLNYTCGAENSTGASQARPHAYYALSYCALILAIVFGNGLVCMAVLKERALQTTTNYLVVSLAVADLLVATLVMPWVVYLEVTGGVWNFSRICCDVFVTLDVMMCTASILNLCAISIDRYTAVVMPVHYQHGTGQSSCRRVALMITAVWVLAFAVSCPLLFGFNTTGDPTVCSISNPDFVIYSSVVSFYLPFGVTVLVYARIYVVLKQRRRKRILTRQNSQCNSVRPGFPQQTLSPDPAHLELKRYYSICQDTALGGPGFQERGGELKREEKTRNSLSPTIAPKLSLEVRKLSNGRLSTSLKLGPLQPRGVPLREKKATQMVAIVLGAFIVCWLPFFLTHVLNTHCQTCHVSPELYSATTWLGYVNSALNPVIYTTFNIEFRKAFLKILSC
Kind of data set: Radioligand binding, dopamine D3 ([3H]spiperone). The note with it: read-out: Binding affinity (Inhibition rate % at 10 μM) D3. On the procedure:
as §1

The target of the next data set is T4, hD4.2 receptor (Homo sapiens, UniProt P21917, DEL265-296).
T4 construct: purchased BioSignal Packard Inc., Montreal, Canada
T4 sequence (P21917 with tags, fused parts or gaps DEL265-296): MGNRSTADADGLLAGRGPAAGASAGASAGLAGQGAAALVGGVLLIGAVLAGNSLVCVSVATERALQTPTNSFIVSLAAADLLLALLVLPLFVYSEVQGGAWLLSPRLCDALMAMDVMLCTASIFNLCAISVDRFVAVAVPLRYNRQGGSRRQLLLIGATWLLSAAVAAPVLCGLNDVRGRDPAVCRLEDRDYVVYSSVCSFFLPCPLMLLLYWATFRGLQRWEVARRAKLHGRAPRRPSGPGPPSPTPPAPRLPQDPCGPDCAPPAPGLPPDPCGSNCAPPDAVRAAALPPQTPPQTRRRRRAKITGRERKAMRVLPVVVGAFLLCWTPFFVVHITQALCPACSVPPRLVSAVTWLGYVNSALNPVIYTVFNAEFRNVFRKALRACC
Kind of data set: Radioligand binding, dopamine D4 ([3H]YM-09151-2). The note with it: read-out: Binding affinity (Inhibition rate % at 10 μM) D4. On the procedure: as §1

The target in a further data set is T5, 5-HT1a (Homo sapiens, UniProt P08908).
T5 construct: purchased Euroscreen/BioSignal Packard Inc
T5 sequence (P08908 1-422): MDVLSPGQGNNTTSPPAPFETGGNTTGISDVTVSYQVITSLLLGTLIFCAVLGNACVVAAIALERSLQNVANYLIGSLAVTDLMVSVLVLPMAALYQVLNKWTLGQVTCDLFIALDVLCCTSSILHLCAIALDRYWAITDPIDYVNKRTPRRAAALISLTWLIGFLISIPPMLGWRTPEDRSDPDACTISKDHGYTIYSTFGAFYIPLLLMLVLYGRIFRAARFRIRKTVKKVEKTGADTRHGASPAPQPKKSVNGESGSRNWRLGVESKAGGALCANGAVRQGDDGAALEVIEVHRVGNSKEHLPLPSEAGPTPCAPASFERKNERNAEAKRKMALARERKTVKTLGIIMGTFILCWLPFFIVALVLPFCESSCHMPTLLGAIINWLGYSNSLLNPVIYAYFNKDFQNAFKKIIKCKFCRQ
Kind of data set: Radioligand binding, 5-HT1a ([3H]8-OH-DPAT). The note with it: read-out: Binding affinity (Inhibition rate % at 10 μM) 5HT1a. On the procedure:
(§2) Radioligand bindings were performed according to the test method provided by the supplier of receptor membrane (Euroscreen/BioSignal Packard Inc.).

A further data set deals with T6, 5-HT2a (Homo sapiens, UniProt P28223).
T6 construct: purchased Euroscreen/BioSignal Packard Inc
T6 sequence (P28223 whole entry): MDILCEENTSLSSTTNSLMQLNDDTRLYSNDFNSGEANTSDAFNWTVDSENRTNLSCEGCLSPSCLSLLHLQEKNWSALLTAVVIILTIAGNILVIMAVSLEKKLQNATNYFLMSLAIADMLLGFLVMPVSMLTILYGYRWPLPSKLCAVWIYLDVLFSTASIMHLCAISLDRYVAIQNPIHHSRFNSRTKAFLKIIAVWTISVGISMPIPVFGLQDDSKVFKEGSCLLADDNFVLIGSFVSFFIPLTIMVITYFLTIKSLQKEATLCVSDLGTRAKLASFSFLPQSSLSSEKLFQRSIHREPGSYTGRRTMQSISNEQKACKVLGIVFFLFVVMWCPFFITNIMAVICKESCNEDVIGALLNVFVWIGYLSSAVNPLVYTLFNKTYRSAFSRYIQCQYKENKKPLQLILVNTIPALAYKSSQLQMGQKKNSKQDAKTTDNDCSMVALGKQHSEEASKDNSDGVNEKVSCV
Kind of data set: Radioligand binding, 5-HT2a ([3H]Ketanserin). The note with it: read-out: Binding affinity (Inhibition rate % at 10 μM) 5HT2a. How it is done:
as §2

For a further data set, the target named is T7, 5-HT2c (Homo sapiens, UniProt P28335).
T7 construct: purchased Euroscreen/BioSignal Packard Inc
T7 sequence (P28335 33-458): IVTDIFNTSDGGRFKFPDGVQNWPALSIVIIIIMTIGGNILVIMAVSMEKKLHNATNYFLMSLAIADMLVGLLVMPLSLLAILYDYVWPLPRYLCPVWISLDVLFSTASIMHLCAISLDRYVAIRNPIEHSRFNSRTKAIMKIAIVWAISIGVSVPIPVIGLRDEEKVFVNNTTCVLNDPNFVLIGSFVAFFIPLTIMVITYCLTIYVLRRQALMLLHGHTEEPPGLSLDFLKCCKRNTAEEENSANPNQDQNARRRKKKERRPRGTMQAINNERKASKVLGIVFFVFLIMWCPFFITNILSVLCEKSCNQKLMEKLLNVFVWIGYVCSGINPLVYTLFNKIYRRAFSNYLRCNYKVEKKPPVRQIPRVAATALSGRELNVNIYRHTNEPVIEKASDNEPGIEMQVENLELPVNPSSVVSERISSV
Kind of data set: Radioligand binding, 5-HT2c ([3H]Mesulergine). The note with it: read-out: Binding affinity (Inhibition rate % at 10 μM) 5HT2c. On the procedure:
as §2

For the next data set, the target named is T8, 5-HT7 (Homo sapiens, UniProt P34969).
T8 construct: purchased Euroscreen/BioSignal Packard Inc
T8 sequence (P34969 whole entry): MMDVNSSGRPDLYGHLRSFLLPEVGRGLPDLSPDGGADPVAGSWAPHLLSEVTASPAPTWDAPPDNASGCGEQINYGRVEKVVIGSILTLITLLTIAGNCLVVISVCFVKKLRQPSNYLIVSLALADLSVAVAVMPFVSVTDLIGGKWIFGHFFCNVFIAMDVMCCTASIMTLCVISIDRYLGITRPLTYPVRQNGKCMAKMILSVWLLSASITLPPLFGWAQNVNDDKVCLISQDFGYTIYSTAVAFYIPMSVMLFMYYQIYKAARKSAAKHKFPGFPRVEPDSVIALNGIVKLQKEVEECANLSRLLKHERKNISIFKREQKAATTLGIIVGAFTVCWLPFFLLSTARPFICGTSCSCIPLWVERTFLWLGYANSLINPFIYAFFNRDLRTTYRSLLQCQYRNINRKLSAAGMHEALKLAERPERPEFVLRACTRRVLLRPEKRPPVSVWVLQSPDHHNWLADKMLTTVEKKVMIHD
Kind of data set: Radioligand binding, 5-HT7 ([3H]LSD). The note with it: read-out: Binding affinity (Inhibition rate % at 10 μM) 5HT7. How it is done: as §2

T1 sequence (P50406 whole entry): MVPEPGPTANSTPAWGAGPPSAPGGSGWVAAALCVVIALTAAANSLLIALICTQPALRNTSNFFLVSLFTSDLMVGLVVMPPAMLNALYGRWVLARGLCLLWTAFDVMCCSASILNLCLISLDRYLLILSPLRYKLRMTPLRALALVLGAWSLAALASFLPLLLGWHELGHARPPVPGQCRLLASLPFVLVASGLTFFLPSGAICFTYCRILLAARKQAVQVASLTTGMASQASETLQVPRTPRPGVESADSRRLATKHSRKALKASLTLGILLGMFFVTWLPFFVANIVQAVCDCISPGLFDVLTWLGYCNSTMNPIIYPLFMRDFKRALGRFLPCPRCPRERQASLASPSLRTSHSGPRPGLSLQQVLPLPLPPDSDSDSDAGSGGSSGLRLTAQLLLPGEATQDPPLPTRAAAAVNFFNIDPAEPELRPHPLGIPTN

As to `CC1(c2cccc(O)c2)C(=O)Nc2cc(Cl)cc(Cl)c2C1=O` (stereo not drawn) [Example 20, 3-(3-hydroxy-phenyl)-5,7-dichloro-3-methyl-1H-quinoline-2,4-dione], the melting point was 248 °C (dec.). Besides, in data set [1], the IC50 was 49 nM, the “5-HT6 affinity compared with known selective antagonists” value is “almost same affinities as or better affinities than known selective antagonists” and the inhibition at 10 µM turned out to be 91.7%. The inhibition at 10 µM at D1 came to 64.6%. For the same molecule, on hD2L receptor, the inhibition at 10 µM is 10.9%. Besides, the inhibition at 10 µM on hD3 receptor turned out to be 13.2%. On hD4.2 receptor, the inhibition at 10 µM was 0%. Further, at 5-HT1a, the inhibition at 10 µM worked out at 0%. Also, the inhibition at 10 µM on 5-HT2a amounted to 46.1%. Besides, the inhibition at 10 µM at 5-HT2c was determined as 4.7%. Moreover, on 5-HT7, the inhibition at 10 µM turned out to be 29.2%.
With `CC1(c2ccc(Br)cc2)C(=O)Nc2cc(Cl)cc(Cl)c2C1=O` (stereo not drawn) [Example 18, 3-(4-bromo-phenyl)-5,7-dichloro-3-methyl-1H-quinoline-2,4-dione], the melting point was 237 to 238 °C. In data set [1], the IC50 worked out at 494 nM and the inhibition at 10 µM came to 73.8%. Further, the inhibition at 10 µM at D1 turned out to be 37.7%. For the same molecule, on hD2L receptor, the inhibition at 10 µM amounted to 16%. Further, at hD3 receptor, the inhibition at 10 µM is 12.5%. Also, the inhibition at 10 µM on hD4.2 receptor was 0%. The inhibition at 10 µM on 5-HT1a amounted to 8%. Also, at 5-HT2a, the inhibition at 10 µM worked out at 16.9%. Moreover, the inhibition at 10 µM on 5-HT2c came to 10.7%. Moreover, the inhibition at 10 µM at 5-HT7 stood at 7.8%.
As for `COc1ccc(C2(C)C(=O)Nc3cc(Cl)cc(Cl)c3C2=O)cc1` (stereo not drawn) [Example 12, 5,7-dichloro-3-(4-methoxy-phenyl)-3-methyl-1H-quinoline-2,4-dione], the melting point was in the range of 210 to 212 °C. Also, in [1], the 50% inhibitory concentration (IC50) worked out at 917 nM, the “5-HT6 affinity compared with known selective antagonists” value is “almost same affinities as or better affinities than known selective antagonists” and the inhibition at 10 µM is 73.3%. Moreover, the inhibition at 10 µM at D1 amounted to 15.7%. For the same molecule, the inhibition at 10 µM at hD2L receptor stood at 16.3%. At hD3 receptor, the inhibition at 10 µM turned out to be 24%. The inhibition at 10 µM on hD4.2 receptor was determined as 0%. The inhibition at 10 µM at 5-HT1a was 40.2%. Further, on 5-HT2a, the inhibition at 10 µM came out at 8.5%. Moreover, the inhibition at 10 µM at 5-HT2c stood at 5.7%. In addition, the inhibition at 10 µM on 5-HT7 was determined as 23.1%.
`CC1(c2cccc(OCc3ccccc3)c2)C(=O)Nc2cc(Cl)cc(Cl)c2C1=O` (stereo not drawn) [Example 19, 3-(3-benzyloxy-phenyl)-5,7-dichloro-3-methyl-1H-quinoline-2,4-dione] registered a melting point of 201 to 203 °C. Moreover, in data set [1], the IC50 amounted to 134 nM and the inhibition at 10 µM was 74.9%. At D1, the inhibition at 10 µM was 92.6%. In addition, at hD2L receptor, the inhibition at 10 µM came to 37.8%. In addition, on hD3 receptor, the inhibition at 10 µM is 37.4%. In addition, the inhibition at 10 µM on hD4.2 receptor was found to be 0%. For the same molecule, at 5-HT1a, the inhibition at 10 µM was determined as 88.8%. Besides, on 5-HT2a, the inhibition at 10 µM was 67.3%. Besides, the inhibition at 10 µM on 5-HT2c is 0%. Moreover, at 5-HT7, the inhibition at 10 µM was 69.5%.
As to `CN1CCN(c2cc(Cl)c3c(c2)NC(=O)C(C)(c2ccc([N+](=O)[O-])cc2)C3=O)CC1` (stereo not drawn) [Example 49, 5-chloro-3-methyl-7-(4-methyl-piperazine-1-yl)-3-(4-nitro-phenyl)-1H-quinoline-2,4-dione], the IC50 in data set [1] worked out at 1020 nM. Further, the inhibition at 10 µM in data set [1] came to 70.2%; at D1 it was 26%; on hD2L receptor, 10.5%; on hD3 receptor, 12.4%; at hD4.2 receptor, 0%; on 5-HT1a, 1.4%. Also, the inhibition at 10 µM on 5-HT2a worked out at 33.4%; at 5-HT2c, 19.8%; on 5-HT7, 24.4%.
Turning to `CN1CCN(c2cc(Cl)c3c(c2)NC(=O)C(C)(c2ccc(N)cc2)C3=O)CC1` (stereo not drawn) [Example 48, 3-(4-amino-phenyl) -5-chloro-3-methyl-7-(4-methyl-piperazine-1-yl)-1H-quinoline-2,4-dione], in data set [1], the IC50 is 1080 nM. Further, the inhibition at 10 µM in [1] is 71.6%; on D1 it was 27.4%; on hD2L receptor it was 19.6%; at hD3 receptor, 8.7%; on hD4.2 receptor, 0%; on 5-HT1a it was 35%. Further, the inhibition at 10 µM at 5-HT2a came to 37.2%; on 5-HT2c, 2.5%; at 5-HT7, 5.6%.
In the case of `CCNc1ccc(C2(C)C(=O)Nc3cc(Cl)cc(Cl)c3C2=O)cc1` (stereo not drawn) [Example 41, 5,7-dichloro-3-methyl-3-(4-ethylamino-phenyl)-1H-quinoline-2,4-dione], the IC50 in [1] was 46 nM. In data set [1], the “5-HT6 affinity compared with known selective antagonists” value is recorded as “almost same affinities as or better affinities than known selective antagonists”. Also, the inhibition at 10 µM in data set [1] was found to be 67.7%; at D1, 24%; on hD2L receptor it was 25.2%; at hD3 receptor, 12.6%; on hD4.2 receptor, 0%; at 5-HT1a, 15.7%. Moreover, the inhibition at 10 µM at 5-HT2a turned out to be 10.8%; on 5-HT2c, 14%; on 5-HT7, 15.4%.
`COc1ccc(C2(C)C(=O)Nc3c(Br)cc(Br)cc3C2=O)cc1N` (stereo not drawn) [Example 29, 3-(3-amino-4-methoxy-phenyl)-6,8-dibromo-3-methyl-1H-quinoline-2,4-dione]: the IC50 in [1] was 1550 nM. Besides, the inhibition at 10 µM in [1] worked out at 68.5%; on D1 it was 23.6%; on hD2L receptor, 5.6%; on hD3 receptor, 43.8%; at hD4.2 receptor, 11.6%; at 5-HT1a it was 40.7%. Moreover, the values for the inhibition at 10 µM on 5-HT2a, on 5-HT2c and on 5-HT7 were 21.1%, 40.6% and 28.1%, respectively.
